Among the data in patent US10676468B2, “N-(3-heteroarylaryl)-4-arylarylcarboxamides and analogs as hedgehog pathway inhibitors and use thereof” (IMPACT Therapeutics, Inc., priority 2012, dated 2020) are IC50 values, retold here.

Common to all, as to format: cell-based, mouse
In assay [1] the test system is Hedgehog Signaling Pathway. Description: SAG-induced differentiation of C3H10T1/2 cells into osteoblastic cells, intracellular alkaline phosphatase activity. Particulars: Mus musculus, C3H 10T1/2, 120 h, 1 μM SAG, 5 days, alkaline phosphatase activity (OD405), read-out: IC50 values of compounds that inhibit Hh pathway. A digest of the protocol: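 Mouse C3H10T1/2 cells were induced with SAG and exposed to compound (10 μM to 1 nM) for 5 days at 37 °C. Cells were lysed in 0.2% Triton, and alkaline phosphatase activity was read as OD405 over 30 min at 37 °C in pH 9.8 substrate buffer. IC50 came from a non-linear fit of background-subtracted OD405 against log concentration.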

Assay [2] concerns Hedgehog Signaling Pathway. Description: SHH-induced differentiation of C3H10T1/2 cells into osteoblastic cells, intracellular alkaline phosphatase activity. As to conditions: Mus musculus, C3H 10T1/2, 120 h, 10 nM SHH-N, 5 days, alkaline phosphatase activity (OD405), read-out: IC50 values of compounds that inhibit Hh pathway. A digest of the protocol:
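Mouse C3H10T1/2 cells were induced with 10 nM SHH-N alongside test compound (10 μM–10 nM) for 5 days at 37 °C. Cells were lysed in 0.2% Triton, and alkaline phosphatase activity was read at OD405 over 30 min at 37 °C with the background reading subtracted. IC50 came from a nonlinear fit against log concentration.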

Assay [3] deals with Hedgehog Signaling Pathway. The assay is described as follows: Gli-Luc reporter gene cell assay in C3H10T1/2/Gli-Luc cells stimulated with Shh. Particulars: Mus musculus, C3H 10T1/2, 24 h, 30 nM Shh, luciferase activity (RLU), read-out: IC50 values of compounds that inhibit Hh pathway. A digest of the protocol:
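C3H10T1/2 cells stably carrying Gli-responsive luciferase were seeded overnight, then treated 24 h at 37 °C with compound (7-point dilution series, DMSO control) plus Shh (30 nM in added medium). Lysate luciferase RLU fitted against log concentration to derive IC50.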

By IC50 is commonly meant the midpoint of a concentration-inhibition curve.

On to `CCN1[C@H](C)CN(c2ccc(C(=O)Nc3ccc(Cl)c(-c4nc5ccccc5[nH]4)c3)cn2)C[C@@H]1C` [Example 105, N-(3-(1H-benzo[d]imidazol-2-yl)-4-chlorophenyl)-6-((3S,5R)-4-ethyl-3,5-dimethylpiperazin-1-yl)nicotinamide], for which the IC50 worked out at 58 nM in assay [1], 2.2 nM in assay [2] and 1.1 nM in assay [3].

As for `Cc1cc(N2C[C@@H](C)N(C)[C@@H](C)C2)ncc1C(=O)Nc1ccc(Cl)c(-c2nc3ccccc3[nH]2)c1` [Example 107, N-(3-(1H-benzo[d]imidazol-2-yl)-4-chlorophenyl)-4-methyl-6-((3S,5R)-3,4,5-trimethylpiperazin-1-yl)nicotinamide], the IC50 in assay [1] worked out at 47 nM; in assay [2], 2.3 nM; in assay [3], 0.75 nM.

Take `Cc1cc(N2C[C@@H](C)N[C@@H](C)C2)ccc1C(=O)Nc1ccc(Cl)c(-c2nc3ccccc3[nH]2)c1` [Example 109, N-(3-(1H-benzo[d]imidazol-2-yl)-4-chlorophenyl)-2-methyl-4-((3S,5R)-3,5-dimethylpiperazin-1-yl)benzamide]: the IC50 was found to be 96 nM in assay [1], 6.4 nM in assay [2] and 3.8 nM in assay [3].

On to `C[C@@H]1CN(c2ccc(C(=O)Nc3ccc(Cl)c(-c4nc5ccccc5n4C)c3)c(Cl)c2)C[C@H](C)N1C` [Example 110, N-(3-(1-methyl-1H-benzo[d]imidazol-2-yl)-4-chlorophenyl)-2-chloro-4-((3S,5R)-3,4,5-trimethylpiperazin-1-yl)benzamide], for which the 50% inhibitory concentration (IC50) in assay [1] turned out to be 28 nM; in assay [2], 0.66 nM; in assay [3], 0.57 nM.

`Cc1ccc2nc(-c3cc(NC(=O)c4ccc(N5C[C@@H](C)N(C)[C@@H](C)C5)cc4Cl)ccc3Cl)[nH]c2c1` [Example 111, N-(3-(6-methyl-1H-benzo[d]imidazol-2-yl)-4-chlorophenyl)-2-chloro-4-((3S,5R)-3,4,5-trimethylpiperazin-1-yl)benzamide]: the IC50 in assay [1] was found to be 68 nM; in assay [2], 0.94 nM; in assay [3], 2.2 nM.

Regarding `Cc1ccc2nc(-c3cc(NC(=O)c4ccc(N5C[C@@H](C)N(C)[C@@H](C)C5)cc4C)ccc3Cl)[nH]c2c1` [Example 112, N-(3-(6-methyl-1H-benzo[d]imidazol-2-yl)-4-chlorophenyl)-2-methyl-4-((3S,5R)-3,4,5-trimethylpiperazin-1-yl)benzamide], the IC50 in assay [1] turned out to be 83 nM; in assay [2] it was 8.6 nM; in assay [3], 5.5 nM.

Turning to `Cc1ccc(NC(=O)c2ccc(N3C[C@@H](C)N(C)[C@@H](C)C3)cc2Cl)cc1-c1nc2ccc(Cl)cc2[nH]1` [Example 113, N-(3-(6-chloro-1H-benzo[d]imidazol-2-yl)-4-methylphenyl)-2-chloro-4-((3S,5R)-3,4,5-trimethylpiperazin-1-yl)benzamide], the IC50 in assay [1] was 1040 nM; in assay [2] it was over 10000 nM; in assay [3], 27 nM.

As for `CCN1[C@H](C)CN(c2ccc(C(=O)Nc3ccc(Cl)c(-c4nc5ccc(F)cc5[nH]4)c3)c(Cl)c2)C[C@@H]1C` [Example 114, N-(3-(6-fluoro-1H-benzo[d]imidazol-2-yl)-4-chlorophenyl)-2-chloro-4-((3S,5R)-4-ethyl-3,5-dimethylpiperazin-1-yl)benzamide], the IC50 in assay [1] stood at 77 nM; in assay [2], 9 nM; in assay [3], 0.85 nM.

As to `Cc1ccc(NC(=O)c2ccc(N3C[C@@H](C)N(C)[C@@H](C)C3)cc2Cl)cc1-c1nc2ccc(F)cc2[nH]1` [Example 115, N-(3-(6-fluoro-1H-benzo[d]imidazol-2-yl)-4-methylphenyl)-2-chloro-4-((3S,5R)-3,4,5-trimethylpiperazin-1-yl)benzamide], the IC50 is 145 nM in assay [1], 31 nM in assay [2] and 3.4 nM in assay [3].

Regarding `Cc1nc(N2C[C@@H](C)N(C)[C@@H](C)C2)ccc1C(=O)Nc1ccc(Cl)c(-c2nc3ccccc3[nH]2)c1` [Example 116, N-(3-(1H-benzo[d]imidazol-2-yl)-4-chlorophenyl)-2-methyl-6-((3S,5R)-3,4,5-trimethylpiperazin-1-yl)nicotinamide], the values for the concentration for half-maximal inhibition (IC50) in assay [1], in assay [2] and in assay [3] were 68 nM, 2.1 nM and 1.4 nM, respectively.

On to `C[C@@H]1CN(c2ccc(C(=O)Nc3ccc(Cl)c(-c4nc5ccccc5[nH]4)c3)c(Cl)n2)C[C@H](C)N1C` [Example 117, N-(3-(1H-benzo[d]imidazol-2-yl)-4-chlorophenyl)-2-chloro-6-((3S,5R)-3,4,5-trimethylpiperazin-1-yl)nicotinamide], for which the IC50 in assay [1] is 27 nM; in assay [2], 4.6 nM; in assay [3], 1.2 nM.

Regarding `C[C@@H]1CN(c2ccc(C(=O)Nc3ccc(Cl)c(-c4nc5ccccc5[nH]4)c3)cc2)C[C@H](C)N1C` [Example 118, N-(3-(1H-benzo[d]imidazol-2-yl)-4-chlorophenyl)-4-((3S,5R)-3,4,5-trimethylpiperazin-1-yl)benzamide], the IC50 was 260 nM in assay [1], 13 nM in assay [2] and 5.1 nM in assay [3].

Consider `C[C@@H]1CN(c2ccc(C(=O)Nc3ccc(Cl)c(-c4nc5ccccc5[nH]4)c3)c(C(F)(F)F)c2)C[C@H](C)N1C` [Example 119, N-(3-(1H-benzo[d]imidazol-2-yl)-4-chlorophenyl)-2-(trifluoromethyl)-4-((3S,5R)-3,4,5-trimethylpiperazin-1-yl)benzamide], for which the IC50 was 39 nM in assay [1], 0.76 nM in assay [2] and 0.45 nM in assay [3].

As for `C[C@@H]1CN(c2ccc(C(=O)Nc3ccc(Cl)c(-c4nc5ccccc5[nH]4)c3)cc2Cl)C[C@H](C)N1C` [Example 120, N-(3-(1H-benzo[d]imidazol-2-yl)-4-chlorophenyl)-3-chloro-4-((3S,5R)-3,4,5-trimethylpiperazin-1-yl)benzamide], the IC50 in assay [1] was 57 nM; in assay [2], 7.4 nM; in assay [3], 1.7 nM.

Turning to `Cc1cc(C(=O)Nc2ccc(Cl)c(-c3nc4ccccc4[nH]3)c2)ccc1N1C[C@@H](C)N(C)[C@@H](C)C1` [Example 121, N-(3-(1H-benzo[d]imidazol-2-yl)-4-chlorophenyl)-3-methyl-4-((3S,5R)-3,4,5-trimethylpiperazin-1-yl)benzamide], the IC50 amounted to 29 nM in assay [1], 23 nM in assay [2] and 1.6 nM in assay [3].

For the molecule `Cc1c(C(=O)Nc2ccc(Cl)c(-c3nc4ccccc4[nH]3)c2)ccc(N2C[C@@H](C)N(C)[C@@H](C)C2)c1F` [Example 122, N-(3-(1H-benzo[d]imidazol-2-yl)-4-chlorophenyl)-2-methyl-3-fluoro-4-((3S,5R)-3,4,5-trimethylpiperazin-1-yl)benzamide], the IC50 in assay [1] was determined as 29 nM; in assay [2], 0.52 nM; in assay [3], 0.39 nM.

Regarding `C[C@@H]1CN(c2cc(Cl)c(C(=O)Nc3ccc(Cl)c(-c4nc5ccccc5[nH]4)c3)cc2F)C[C@H](C)N1C` [Example 123, N-(3-(1H-benzo[d]imidazol-2-yl)-4-chlorophenyl)-2-chloro-5-fluoro-4-((3S,5R)-3,4,5-trimethylpiperazin-1-yl)benzamide], the IC50 in assay [1] turned out to be 53 nM; in assay [2], 0.97 nM; in assay [3], 0.39 nM.
